In one assay the test system is Caco-2. The experiment in a line: Cytotoxicity assay G50, MTT or resazurin (Example 29). The assay is classed as cell-based. The note with it: Homo sapiens; cell line Caco-2. The procedure: (§1) Cell culture. Tumor cell lines (B16-F0, Caco-2, DU-145, HT-29, MDA-MB-231 and other cell lines described so far in the patent application) were obtained from the American Type Culture Collection (ATCC HTB-26; Bethesda, Md.). Cells were grown in RPMI 1640 medium supplemented with 10% fetal bovine serum (Hyclone, Road Logan, Utah) and were cultured in a humidified atmosphere at 37° C. in 5% CO2.
(§2) Drugs: All drugs were dissolved in DMSO and the final concentration of DMSO in the culture medium was maintained at 0.5% (v/v).
(§3) Cytotoxiciy assays. At day-1, tumor cells in suspension in 100 μl were plated in microtiter plates (96 wells). On day-0, tumor cells were treated by addition of escalating concentrations of the drug (100 μl solution). On that day, the number of living cells was determined in wells that were untreated. The number of living cells is determined using either MTT or resazurin assays. Growth inhibition activity of these compounds was expressed as the concentration of CAU inhibiting cell growth by 50% G50 in the following table
(§4) The MTT assay was as described above in Example 1. The Resazurin assay was performed as follows:
(§5) Aspirate the supernatant (cell suspension: centrifuge first)
(§6) Add 100 μL NaCl 0.9% (saline)
(§7) Add 50 μL RZ (resazurin 125 μg/ml/PBS: RPMI without FBS; 1:4)
(§8) Collect fluorescence data at different time.
Background: Resazurin is reduced to fluorescent resorufin, in cell work by metabolically active cells.

The test system of the next assay is B16-F0. Described as above. The assay is classed as cell-based. The note with it: Mus musculus, B16F0; cell line B16-F0. The method, then: as §1, §2, §3, §4, §5, §6, §7, §8
A further assay relates to DU-145. The description is as above. The note with it: Homo sapiens; cell line DU-145. The assay is classed as cell-based. The procedure:
as §1, §2, §3, §4, §5, §6, §7, §8

The subject of another assay is HT-29. The description is as above. The format is cell-based. The note with it: Homo sapiens; cell line HT-29. The method, then:
as §1, §2, §3, §4, §5, §6, §7, §8

In a further assay the test system is MDA-MB-231. The assay is described as above. The format is cell-based. As to conditions: Homo sapiens; cell line MDA-MB-231. The procedure:
as §1, §2, §3, §4, §5, §6, §7, §8

Another assay deals with CHO. The assay is described as above. The assay is classed as cell-based, Chinese Hamster. As to conditions: Cricetulus griseus; cell line CHO. The method, then: as §4, §5, §6, §7, §8
The test system of another assay is L1210. Described as above. The assay is classed as cell-based. The note with it: Mus musculus; cell line L1210. The procedure: as §4, §5, §6, §7, §8
The subject of a further assay is K562. Described as above. The assay is classed as cell-based. As to conditions: Homo sapiens; cell line K562. The method, then: as §4, §5, §6, §7, §8
The subject of a further assay is MCF-7. The assay is described as above. The format is cell-based. As to conditions: Homo sapiens, MCF7; cell line MCF-7. The procedure: as §4, §5, §6, §7, §8
A further assay concerns T24. Described as above. As to conditions: Homo sapiens, T-24; cell line T24. The format is cell-based. The procedure: as §4, §5, §6, §7, §8
The subject of assay [1] is L1210 (mouse leukemia cells). The experiment in a line: In-vitro cytotoxicity, MTT assay (Example 1). The note with it: L1210, 120 h, Table I, four to five days in the presence of drugs. The assay is classed as cell-based. The method, then:
(§9) The conventional evaluation method proposed by the American National Cancer Institute was used. The method measures effectiveness of an anti-cancer drug based on IC50 which symbolizes the drug concentration in μM at which the drug achieves the inhibition of proliferation of a given line of cancer cells by a factor of one half when compared to the normal proliferation of the same line of cancer cells in the same growth media
(§10) CAU were tested on several cell lines including human non-hormone-dependant breast cancer cells (MDA-MB-231), and mouse leukemia (L1210). MDA-MB-231. These cell lines were obtained from the American Type Culture Collection (Bethesda, Md., USA). Cytotoxicity of CAU derivatives was tested and compared to the effect of chlorambucil and carmustine.
(§11) Tumor cells were grown in RPMI-1640 medium supplemented with 10% fetal calf serum, 2 mM glutamine and 64 U/mL of gentamycin. Cells were routinely passaged at 90% confluence.
(§12) Five thousand cells (100 μl) were seeded in 96 well's plate and incubated for one day at 37° C. under a humidified atmosphere, in presence of 5% CO2. […]
(§13) Cell's survival was evaluated by colorimetric assay using MTT, according to a modification of the procedure reported by Carmichael and coil. […] The plates were then shaken for 15 minutes and the absorbance read at 570 nm with a Behring Elisa Procesor II (Behring, Marburg, Germany). […]
On the technique in general: Tetrazolium dyes change colour on reduction, which living cells bring about.

For assay [2], the system named is MDA-MB-231 (human breast cancer cells). The experiment in a line: In-vitro cytotoxicity, MTT assay (Example 1). The note with it: MDA-MB-231, 120 h, Table I, four to five days in the presence of drugs. The assay is classed as cell-based. The procedure:
as §9, §10, §11, §12, §13

A value given as a limit tells only on which side of the number the result lay.

For orientation: IC50 means the concentration needed to halve the response being measured. In the case of `CCCCCCCc1ccc(NC(=O)N[C@H](CC)CCl)cc1` [Example 24], the concentration for half-maximal inhibition (IC50) with Caco-2 turned out to be 4.85 µM; in the assay on B16-F0, 3.74 µM; with DU-145, 4.02 µM; with HT-29 it was 2.94 µM; in the assay with MDA-MB-231 it was 5.17 µM; with CHO, 3.14 µM. Besides, the half-maximal inhibitory concentration (IC50) with L1210 was 4.04 µM; in the assay on K562, 2.9 µM; in the assay with MCF-7 it was 3.78 µM; in the assay with T24, 3.61 µM.

With `CCCCCCCc1ccc(NC(=O)N[C@@H](C)CCl)cc1` [Example 22], the half-maximal inhibitory concentration (IC50) worked out at 7.61 µM in the assay with Caco-2; 6.6 µM in the assay with B16-F0; 7.46 µM in the assay on DU-145; 7.69 µM with HT-29; 8.33 µM in the assay on MDA-MB-231; 3.8 µM with CHO. Besides, the 50% inhibitory concentration (IC50) in the assay on L1210 came to 7.48 µM; with K562, 6.96 µM; in the assay on MCF-7, 5.56 µM; in the assay with T24, 6.15 µM.

In the case of `CCCCCCOc1ccc(NC(=O)N[C@@H](CC)CCl)cc1` [Example 28], the IC50 in the assay on Caco-2 was 9.5 µM; in the assay on B16-F0, 8.26 µM; in the assay with DU-145, 9.46 µM; with HT-29 it was 8.12 µM; with MDA-MB-231, 8.75 µM; in the assay on CHO it was 3.28 µM. For the same molecule, the IC50 came to 7.42 µM in the assay with L1210, 3.88 µM with K562, 10.4 µM in the assay with MCF-7 and 7.16 µM in the assay with T24.

On to `CCCC(CCl)NC(=O)Nc1ccc(C2CCCCC2)cc1` (racemic) [Example 25], for which the IC50 in the assay on Caco-2 was determined as 6.04 µM; in the assay on B16-F0 it was 4.14 µM; with DU-145, 4.3 µM; with HT-29, 3.03 µM; with MDA-MB-231 it was 6.37 µM; with CHO, 2.12 µM. Further, the IC50 worked out at 4.12 µM in the assay on L1210, 4.93 µM in the assay on K562, 5.05 µM in the assay on MCF-7 and 4.24 µM in the assay with T24.

Turning to `CC[C@@H](CCl)NC(=O)Nc1ccc(OC)c(OC)c1` [Example 19], the IC50 with Caco-2, with B16-F0, with DU-145, in the assay on HT-29, in the assay with MDA-MB-231 and with CHO was > 100 µM each time. Further, the IC50 with L1210, with K562, with MCF-7 and in the assay with T24 was > 100 µM throughout.

`COc1ccc(NC(=O)N[C@@H](C)CCl)cc1OC` [Example 18]: the concentration for half-maximal inhibition (IC50) in the assay with Caco-2, with B16-F0, in the assay with DU-145, in the assay with HT-29, with MDA-MB-231 and in the assay with CHO was > 100 µM each time. The IC50 in the assay with L1210, with K562, with MCF-7 and with T24 was > 100 µM each time.

As to `COc1ccc(NC(=O)N[C@H](C)CCl)cc1OC` [Example 17], the half-maximal inhibitory concentration (IC50) in the assay with Caco-2 is > 100 µM; in the assay with B16-F0, 26.4 µM; with DU-145 it was 34.9 µM; in the assay with HT-29 it was 14.8 µM; with MDA-MB-231 it was 43.6 µM; in the assay with CHO, 32.2 µM. Besides, the IC50 with L1210 came out at 10.3 µM; in the assay with K562 it was 9.62 µM; with MCF-7, 25.1 µM; with T24, 12.4 µM.

Consider `CCCCCCOc1ccc(NC(=O)N[C@H](C)CCl)cc1` [Example 26], for which the IC50 in the assay on Caco-2 is 8.57 µM; with B16-F0 it was 6.38 µM; with DU-145 it was 13.2 µM; with HT-29, 9.55 µM; with MDA-MB-231 it was 10.5 µM; with CHO it was 2.63 µM. Also, the IC50 amounted to 6.21 µM in the assay with L1210, 2.68 µM in the assay with K562, 8.3 µM in the assay with MCF-7 and 7.14 µM in the assay with T24.

For `CC[C@H](CCl)NC(=O)Nc1ccc(OC)c(OC)c1` [Example 20], the concentration for half-maximal inhibition (IC50) with Caco-2, in the assay on B16-F0, in the assay with DU-145, in the assay with HT-29, in the assay on MDA-MB-231 and in the assay with CHO was > 100 µM each time. Also, the half-inhibitory concentration (IC50) in the assay with L1210, with K562, in the assay with MCF-7 and in the assay on T24 was > 100 µM each time.

Take `O=NN(CCCl)C(=O)NCCCl` [Carmustine, carmustine]: the IC50 in assay [1] turned out to be 4.5 µM; in assay [2], 6.8 µM.

As to `CCCCCCOc1ccc(NC(=O)N[C@@H](C)CCl)cc1` [Example 27], the IC50 was 7.98 µM with Caco-2; 8.45 µM in the assay with B16-F0; 12.6 µM in the assay on DU-145; 10.5 µM in the assay with HT-29; 9.08 µM in the assay with MDA-MB-231; 3.66 µM with CHO. Further, the IC50 with L1210 is 8.2 µM; in the assay with K562, 7.48 µM; in the assay with MCF-7, 7.99 µM; with T24, 9.93 µM.

Regarding `CCCCCCCc1ccc(NC(=O)N[C@@H](CC)CCl)cc1` [Example 23], the concentration for half-maximal inhibition (IC50) in the assay with Caco-2 was determined as 6.32 µM; in the assay on B16-F0 it was 4.77 µM; in the assay on DU-145, 4.89 µM; with HT-29, 5.01 µM; in the assay with MDA-MB-231, 6.12 µM; in the assay on CHO it was 4.2 µM. Further, the half-inhibitory concentration (IC50) with L1210 turned out to be 5.67 µM; in the assay on K562, 3.59 µM; in the assay on MCF-7, 4.2 µM; in the assay on T24 it was 3.93 µM.

Regarding `CCCCCCCc1ccc(NC(=O)N[C@H](C)CCl)cc1` [Example 21], the IC50 with Caco-2 was found to be 4.94 µM; with B16-F0, 3.79 µM; in the assay on DU-145, 3.63 µM; in the assay with HT-29, 2.17 µM; in the assay on MDA-MB-231, 4.64 µM; with CHO it was 3.46 µM. Moreover, the IC50 in the assay with L1210 was 2.42 µM; in the assay with K562, 2.41 µM; in the assay on MCF-7 it was 3.31 µM; with T24 it was 2.18 µM.

The values above are taken from patent US6686394B1, “Aryl-chloro-ethyl ureas” (Sovar, Societe en Commandite, priority 1999, dated 2004).
